Test results from US10570122B2, “Compounds with anti-tumoral activity” (AB Science, priority 2015, dated 2020).

What was measured:
OPM2 = assay: CellTiter-Blue cell-based survival/proliferation assay, OPM2; settings: Homo sapiens, OPM-2, Myeloma cell line OPM2, 48 h, read-out: Anti-tumoral activity (measured IC50) OPM2
Outline: (§1)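 Tenfold compound dilutions (0–10 μM) were added to 1·10^4 cells/well. Plates incubated 48 h at 37 °C. CellTiter-Blue reduction (4 h, 37 °C) was read as fluorescence at 590 nm, background-corrected with a cell-free blank.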

PANC1 = assay: CellTiter-Blue cell-based survival/proliferation assay, PANC1; settings: Homo sapiens, PANC-1; PANC_1 pancreas tumor cell line, 48 h
Outline: as §1

BXPC3 = assay: CellTiter-Blue cell-based survival/proliferation assay, BXPC3; settings: Homo sapiens, BXPC-3; BXPC3 pancreas tumor cell line, 48 h
Outline: as §1

[1] = test system: panel of about 34 human tumor cell lines; assay: Cell-based proliferation screening on panel of tumor cell lines; settings: solid tumor cell line, cell line unknown, 48 h, read-out: IC50, solid tumor cell line of column 6 (last section of Table 3)
Outline: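 CellTiter-Blue survival assay with 1·10^4 cells/well, each line treated 48 h at 37° C with 1/10 serial dilutions from 0 to 10 μM. Resorufin formed during a 4 h reagent incubation is read by fluorescence at 590 nm. A cell-free blank serves as background.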

PLCPRF5 = assay: CellTiter-Blue cell-based survival/proliferation assay, PLCPRF5; settings: Homo sapiens, PLC-PRF-5; PLC_PRF5 liver tumor cell line, 48 h
Outline: as §1

PC3 = assay: CellTiter-Blue cell-based survival/proliferation assay, PC3; settings: Homo sapiens, PC-3; PC3 prostate tumor cell line, 48 h
Outline: as §1

HL60 = assay: CellTiter-Blue cell-based survival/proliferation assay, HL60; settings: Homo sapiens, HL-60, Leukemia cell line HL60, 48 h, read-out: Anti-tumoral activity (measured IC50) HL60
Outline: as §1

HEP2 = assay: CellTiter-Blue cell-based survival/proliferation assay, HEP2; settings: Homo sapiens, HEp-2; HEP2 head & neck tumor cell line, 48 h
Outline: as §1

HCT116 = assay: CellTiter-Blue cell-based survival/proliferation assay, HCT116; settings: Homo sapiens, HCT-116; HCT116 colorectal tumor cell line, 48 h
Outline: as §1

KARPAS299 = assay: CellTiter-Blue cell-based survival/proliferation assay, KARPAS299; settings: Homo sapiens, KARPAS-299, Lymphoma cell line KARPAS299, 48 h, read-out: Anti-tumoral activity (measured IC50) KARPAS299
Outline: as §1

MDAMB231 = assay: CellTiter-Blue cell-based survival/proliferation assay, MDAMB231; settings: Homo sapiens, MDA-MB-231; MDAMB231 breast tumor cell line, 48 h
Outline: as §1

CLS354 = assay: CellTiter-Blue cell-based survival/proliferation assay, CLS354; settings: Homo sapiens, CLS-354; CLS354_4 head & neck tumor cell line, 48 h
Outline: as §1

HEPG2 = assay: CellTiter-Blue cell-based survival/proliferation assay, HEPG2; settings: Homo sapiens; HEPG2 liver tumor cell line, 48 h
Outline: as §1

A498 = assay: CellTiter-Blue cell-based survival/proliferation assay, A498; settings: Homo sapiens; A498 kidney tumor cell line, 48 h
Outline: as §1

SW579 = assay: CellTiter-Blue cell-based survival/proliferation assay, SW579; settings: Homo sapiens; SW579 head & neck tumor cell line, 48 h
Outline: as §1

ACHN = assay: CellTiter-Blue cell-based survival/proliferation assay, ACHN; settings: Homo sapiens; ACHN kidney tumor cell line, 48 h
Outline: as §1

REC1 = assay: CellTiter-Blue cell-based survival/proliferation assay, REC1; settings: Homo sapiens, Lymphoma cell line REC1, 48 h, read-out: Anti-tumoral activity (measured IC50) REC1
Outline: as §1

AGS = assay: CellTiter-Blue cell-based survival/proliferation assay, AGS; settings: Homo sapiens; AGS stomach tumor cell line, 48 h
Outline: as §1

A549 = assay: CellTiter-Blue cell-based survival/proliferation assay, A549; settings: Homo sapiens; A549 lung tumor cell line, 48 h
Outline: as §1

HGC27 = assay: CellTiter-Blue cell-based survival/proliferation assay, HGC27; settings: Homo sapiens, HGC-27; HGC27 stomach tumor cell line, 48 h
Outline: as §1

DLD1 = assay: CellTiter-Blue cell-based survival/proliferation assay, DLD1; settings: Homo sapiens, DLD-1; DLD_1 colorectal tumor cell line, 48 h
Outline: as §1

MESSA = assay: CellTiter-Blue cell-based survival/proliferation assay, MESSA; settings: Homo sapiens, MES-SA; MESSA ovary tumor cell line, 48 h
Outline: as §1

DU145 = assay: CellTiter-Blue cell-based survival/proliferation assay, DU145; settings: Homo sapiens, DU-145; DU145 prostate tumor cell line, 48 h
Outline: as §1

HUT78 = assay: CellTiter-Blue cell-based survival/proliferation assay, HUT78; settings: Homo sapiens, Lymphoma cell line HUT78, 48 h, read-out: Anti-tumoral activity (measured IC50) HUT78
Outline: as §1

TOV112D = assay: CellTiter-Blue cell-based survival/proliferation assay, TOV112D; settings: Homo sapiens; TOV112D ovary tumor cell line, 48 h
Outline: as §1

[2] = test system: human kinases (456 kinases); assay: KINOMEscan in vitro kinase profiling; format: binding
Method: An in vitro kinase profiling was conducted in order to evidence the absence of protein kinase inhibition by the compounds of the invention.
DiscoveRx (Ambit Biosciences) has developed a high-throughput system (KINOMEscan™) for screening of compounds against large numbers of human kinases (456 kinases).
The compounds of the invention were screened at the concentration of 1 μM, and results for primary screen binding interactions were reported as percent control (% Ctrl), where lower numbers indicate stronger hits. DMSO is used as a negative control (100% Ctrl) while a high affinity compound is used as a positive control (0% Ctrl). % Ctrl is calculated as follow:
[formula] Selectivity Score or S-score is a quantitative measure of compound selectivity. It is calculated by dividing the number of kinases that compounds bind to by the total number of distinct kinases tested, excluding mutant variants. S(10)=(number of kinases with % Ctrl<10)/(number of kinases tested), S(1)=(number of kinases with % Ctrl<1)/(number of kinases tested).

H1299 = assay: CellTiter-Blue cell-based survival/proliferation assay, H1299; settings: Homo sapiens, NCI-H1299; H1299 lung tumor cell line, 48 h
Outline: as §1

CALU6 = assay: CellTiter-Blue cell-based survival/proliferation assay, CALU6; settings: Homo sapiens, Calu-6; CALU6 lung tumor cell line, 48 h
Outline: as §1

BT20 = assay: CellTiter-Blue cell-based survival/proliferation assay, BT20; settings: Homo sapiens, BT-20; BT20 breast tumor cell line, 48 h
Outline: as §1

Row | IC50 [1] | Structure (SMILES) | IC50 (OPM2) | IC50 (PANC1) | IC50 (BXPC3) | IC50 (PLCPRF5) | IC50 (PC3) | IC50 (HL60) | IC50 (HEP2) | IC50 (HCT116) | IC50 (KARPAS299) | IC50 (MDAMB231) | IC50 (CLS354) | IC50 (HEPG2) | IC50 (A498) | IC50 (SW579) | IC50 (ACHN) | IC50 (REC1) | IC50 (AGS) | IC50 (A549) | IC50 (HGC27) | also measured
1 | ≤ 0.1 µM | CCOCc1ccc(C)c(Nc2ncc(-c3ccc(-n4cccn4)cc3)o2)c1 [Example 033, (5-Ethoxymethyl-2-methyl-phenyl)-[5-(4-pyrazol-1-yl-phenyl)-oxazol-2-yl]-amine] | ≤ 0.1 µM | > 1 µM | 0.1 to 0.5 µM | 0.5 to 1 µM | ≤ 0.1 µM | ≤ 0.1 µM | ≤ 0.1 µM | 0.1 to 0.5 µM | ≤ 0.1 µM | > 1 µM | ≤ 0.1 µM | 0.5 to 1 µM | 0.1 to 0.5 µM | > 1 µM | ≤ 0.1 µM | ≤ 0.1 µM | ≤ 0.1 µM | > 1 µM | ≤ 0.1 µM | IC50 (DLD1): ≤ 0.1 µM; IC50 (MESSA): 0.1 to 0.5 µM; IC50 (DU145): > 1 µM; IC50 (HUT78): ≤ 0.1 µM; IC50 (TOV112D): ≤ 0.1 µM; Interaction with the 456 kinases tested ([2]; screened at 1 μM): do not efficiently interact; Number of hits/number of kinases, S1 ([2]; tested at 1 μM, S(1): kinases with % Ctrl<1): 0/456; S-score, S1 ([2]; tested at 1 μM, S(1)=(number of kinases with % Ctrl<1)/(number of kinases tested)): 0.000; Number of hits/number of kinases, S10 ([2]; tested at 1 μM, S(10): kinases with % Ctrl<10): 1/456; S-score, S10 ([2]; tested at 1 μM, S(10)=(number of kinases with % Ctrl<10)/(number of kinases tested)): 0.002; Kinase targets, S10 ([2]; tested at 1 μM, kinases with % Ctrl<10): CDKL3; IC50 (H1299): > 1 µM; IC50 (CALU6): ≤ 0.1 µM; IC50 (BT20): 0.1 to 0.5 µM
2 | > 1 µM | CCOCc1ccc(C)c(Nc2ncc(-c3ccc(N4CCN(CCNC(C)=O)C4=O)cc3)o2)c1 [Example 046, N-[2-(3-{4-[2-(5-Ethoxymethyl-(2-methyl-phenylamino))-oxazol-5-yl]-phenyl}-2-oxo-imidazolidin-1-yl)-ethyl]-acetamide] | > 1 µM | > 1 µM | > 1 µM | > 1 µM | > 1 µM | > 1 µM | > 1 µM | > 1 µM | > 1 µM | > 1 µM | > 1 µM | > 1 µM | > 1 µM | > 1 µM | > 1 µM | > 1 µM | > 1 µM | > 1 µM | > 1 µM | IC50 (DLD1): > 1 µM; IC50 (MESSA): > 1 µM; IC50 (DU145): > 1 µM; IC50 (HUT78): > 1 µM; IC50 (TOV112D): > 1 µM; IC50 (H1299): > 1 µM; IC50 (CALU6): > 1 µM; IC50 (BT20): > 1 µM
